# Like-named read-outs stand apart in the source and are kept apart here.
# Legend:
# isolated rabbit hearts [1] = assay: coronary vasodilator effect: coronary flow, isolated heart (Langendorff)
# Procedure: (§1) The cardiokinetic effect on isolated heart was also investigated as follows. Rabbit hearts isolated by the Langendorff method were perfused with oxygenized ringer solution at 38.2° C. The isometric contractions, electrocardiogram and coronary flow were recorded using a "Battaglia-Rangoni" polygraph. By removing the oxygen from the perfusion fluid, metabolic damage was induced in the cardia muscle, up to an 80% reduction in the cardiac contractile force.
# (§2) Under these conditions of prolonged anoxia the aerobic glycolysis of the myocardium is slowed down, accompanied by the storage of acid catabolites due to both the accumulation of pyruvic acid and its conversion to lactic acid which cannot be utilized because of the depression of pyridine enzymes, such as LDH (lactodehydrogenase). This has repercussions on the anaerobic glycolysis affecting an ever increasing number of enzymes, accompanied by a progressive and increasingly critical exhaustion of the myocardium. Thus a whole series of cardiac muscle fatigue levels occurs which can be observed by the behavior of the examined parameters, namely the contractile force, coronary flow, heart rate and cardiac rhythm. As soon as the contractile force was reduced by 80%, the perfusion fluid was once again oxygenized either without adding other compounds (controls) or with the addition of the compounds under examination.
# isolated rabbit hearts [2] = assay: cardiokinetic effect on isolated heart (Langendorff): contractile force after anoxia, positive inotropic effect; conditions: 10 minutes from interruption of anoxic period
# Procedure: as §1, §2
# Table 3 below gives the percentage values of the contractile force of the heart, showing a positive inotropic effect, calculated after 10 minutes from the interruption of the anoxic period (myocardial restoration).
# isolated rat atrium = assay: antiarrhythmic effect, isolated rat atrium method of M. Libonati and G. Segre; conditions: Rattus norvegicus
# female rats = assay: antifatigue effect: rota-rod; format: in vivo, rat; conditions: Rattus norvegicus, ip, 0.25 h
# Procedure: The antifatigue effect was also examined with the following results. The antifatigue effect was investigated by administering the compounds of the formula (I) according to the present application to female rats intraperitoneally in saline solution and saline solution alone to the controls by the same route. Every 15 minutes (sessions) after treatment, the animals were placed on a 6 cm diameter rod, rotating at 16 r.p.m. The percentage of the animals capable of staying on the rota-rod for a duration of more than 180 seconds was then recorded.
# [3] = read-out: Mean percent variation versus controls: excitability (-%)
# [4] = read-out: Mean percent variation versus controls: frequency max (-%)
# [5] = read-out: Mean percent variation versus controls: refractory period (+%)
# [6] = read-out: Mean percent variation versus controls: rheobase (+%)
structure (smiles),measurement,setting,value
"CCCCCCCCCCCCCCCC(=O)OC(CC(=O)[O-])C[N+](C)(C)C (racemic) [palmitoyl-d,l-carnitine]","Coronary flow, Mean ± S.E.",isolated rabbit hearts [1]; 1·10^-5 g/lt,84.68 ± 7.20%
same,"Coronary flow, Mean ± S.E.",isolated rabbit hearts [1]; 1·10^-6 g/lt,78.15 ± 7.21%
same,"Coronary flow, Mean ± S.E.",isolated rabbit hearts [1]; 5·10^-6 g/lt,72.20 ± 12.73%
same,"Contractile force, Mean ± S.E.",isolated rabbit hearts [2]; 1·10^-5 g/lt,38.2 ± 4.75%
same,"Contractile force, Mean ± S.E.",isolated rabbit hearts [2]; 1·10^-6 g/lt,27.8 ± 4.71%
same,"Contractile force, Mean ± S.E.",isolated rabbit hearts [2]; 5·10^-6 g/lt,33.4 ± 3.08%
same,inhibition at 0.001 µg/mL,isolated rat atrium; [3],0%
same,inhibition at 0.01 µg/mL,isolated rat atrium; [3],3.01%
same,inhibition at 0.1 µg/mL,isolated rat atrium; [3],32.8%
same,inhibition at 0.001 µg/mL,isolated rat atrium; [4],16.9%
same,inhibition at 0.01 µg/mL,isolated rat atrium; [4],8.14%
same,inhibition at 0.1 µg/mL,isolated rat atrium; [4],80.5%
same,activation at 0.001 µg/mL,isolated rat atrium; [5],0%
same,activation at 0.01 µg/mL,isolated rat atrium; [5],13.7%
same,activation at 0.1 µg/mL,isolated rat atrium; [5],34.1%
same,activation at 0.001 µg/mL,isolated rat atrium; [6],22.2%
same,activation at 0.01 µg/mL,isolated rat atrium; [6],7.33%
same,activation at 0.1 µg/mL,isolated rat atrium; [6],6.91%
same,responders at 300 mg/kg,"female rats; read-out: percentage of animals staying on the rota-rod more than 180 seconds, 300 mg/kg i.p., session 1 (every 15 minutes)",0%
same,responders at 300 mg/kg,"female rats; read-out: percentage of animals staying on the rota-rod more than 180 seconds, 300 mg/kg i.p., session 2 (every 15 minutes)",0%
same,responders at 300 mg/kg,"female rats; read-out: percentage of animals staying on the rota-rod more than 180 seconds, 300 mg/kg i.p., session 3 (every 15 minutes)",0%
same,responders at 300 mg/kg,"female rats; read-out: percentage of animals staying on the rota-rod more than 180 seconds, 300 mg/kg i.p., session 4 (every 15 minutes)",0%
same,responders at 300 mg/kg,"female rats; read-out: percentage of animals staying on the rota-rod more than 180 seconds, 300 mg/kg i.p., session 5 (every 15 minutes)",10%
same,responders at 300 mg/kg,"female rats; read-out: percentage of animals staying on the rota-rod more than 180 seconds, 300 mg/kg i.p., session 6 (every 15 minutes)",10%
same,responders at 400 mg/kg,"female rats; read-out: percentage of animals staying on the rota-rod more than 180 seconds, 400 mg/kg i.p., session 1 (every 15 minutes)",0%
same,responders at 400 mg/kg,"female rats; read-out: percentage of animals staying on the rota-rod more than 180 seconds, 400 mg/kg i.p., session 2 (every 15 minutes)",0%
same,responders at 400 mg/kg,"female rats; read-out: percentage of animals staying on the rota-rod more than 180 seconds, 400 mg/kg i.p., session 3 (every 15 minutes)",0%
same,responders at 400 mg/kg,"female rats; read-out: percentage of animals staying on the rota-rod more than 180 seconds, 400 mg/kg i.p., session 4 (every 15 minutes)",10%
same,responders at 400 mg/kg,"female rats; read-out: percentage of animals staying on the rota-rod more than 180 seconds, 400 mg/kg i.p., session 5 (every 15 minutes)",20%
same,responders at 400 mg/kg,"female rats; read-out: percentage of animals staying on the rota-rod more than 180 seconds, 400 mg/kg i.p., session 6 (every 15 minutes), * p < 0.05",20%
same,responders at 600 mg/kg,"female rats; read-out: percentage of animals staying on the rota-rod more than 180 seconds, 600 mg/kg i.p., session 1 (every 15 minutes)",0%
same,responders at 600 mg/kg,"female rats; read-out: percentage of animals staying on the rota-rod more than 180 seconds, 600 mg/kg i.p., session 2 (every 15 minutes)",0%
same,responders at 600 mg/kg,"female rats; read-out: percentage of animals staying on the rota-rod more than 180 seconds, 600 mg/kg i.p., session 3 (every 15 minutes)",0%
same,responders at 600 mg/kg,"female rats; read-out: percentage of animals staying on the rota-rod more than 180 seconds, 600 mg/kg i.p., session 4 (every 15 minutes)",20%
same,responders at 600 mg/kg,"female rats; read-out: percentage of animals staying on the rota-rod more than 180 seconds, 600 mg/kg i.p., session 5 (every 15 minutes)",20%
same,responders at 600 mg/kg,"female rats; read-out: percentage of animals staying on the rota-rod more than 180 seconds, 600 mg/kg i.p., session 6 (every 15 minutes), * p < 0.05",30%
"CCCCCCCC(=O)OC(CC(=O)[O-])C[N+](C)(C)C (racemic) [octanoyl-d,l-carnitine]","Coronary flow, Mean ± S.E.",isolated rabbit hearts [1]; 1·10^-5 g/lt,84.71 ± 6.20%
same,"Coronary flow, Mean ± S.E.",isolated rabbit hearts [1]; 1·10^-6 g/lt,76.24 ± 6.13%
same,"Coronary flow, Mean ± S.E.",isolated rabbit hearts [1]; 5·10^-6 g/lt,76.00 ± 9.16%
same,"Contractile force, Mean ± S.E.",isolated rabbit hearts [2]; 1·10^-5 g/lt,37.8 ± 4.62%
same,"Contractile force, Mean ± S.E.",isolated rabbit hearts [2]; 1·10^-6 g/lt,25.2 ± 3.60%
same,"Contractile force, Mean ± S.E.",isolated rabbit hearts [2]; 5·10^-6 g/lt,29.8 ± 4.13%
same,inhibition at 0.1 µg/mL,"isolated rat atrium; 1·10^-4 g/lt, decrease, read-out: Mean percent variation versus controls: excitability (-%)",47.8%
same,inhibition at 0.1 µg/mL,"isolated rat atrium; 1·10^-4 g/lt, decrease, read-out: Mean percent variation versus controls: frequency max (-%)",17.2%
same,activation at 0.1 µg/mL,"isolated rat atrium; 1·10^-4 g/lt, increase, read-out: Mean percent variation versus controls: refractory period (+%)",39.8%
same,activation at 0.1 µg/mL,"isolated rat atrium; 1·10^-4 g/lt, increase, read-out: Mean percent variation versus controls: rheobase (+%)",4.16%
same,inhibition at 0.01 µg/mL,"isolated rat atrium; 1·10^-5 g/lt, decrease, read-out: Mean percent variation versus controls: excitability (-%)",28.6%
same,inhibition at 0.01 µg/mL,"isolated rat atrium; 1·10^-5 g/lt, decrease, read-out: Mean percent variation versus controls: frequency max (-%)",36.2%
same,activation at 0.01 µg/mL,"isolated rat atrium; 1·10^-5 g/lt, increase, read-out: Mean percent variation versus controls: refractory period (+%)",16.5%
same,activation at 0.01 µg/mL,"isolated rat atrium; 1·10^-5 g/lt, increase, read-out: Mean percent variation versus controls: rheobase (+%)",0%
same,inhibition at 0.001 µg/mL,"isolated rat atrium; 1·10^-6 g/lt, decrease, read-out: Mean percent variation versus controls: excitability (-%)",12.7%
same,inhibition at 0.001 µg/mL,"isolated rat atrium; 1·10^-6 g/lt, decrease, read-out: Mean percent variation versus controls: frequency max (-%)",10.9%
same,activation at 0.001 µg/mL,"isolated rat atrium; 1·10^-6 g/lt, increase, read-out: Mean percent variation versus controls: refractory period (+%)",5.73%
same,activation at 0.001 µg/mL,"isolated rat atrium; 1·10^-6 g/lt, increase, read-out: Mean percent variation versus controls: rheobase (+%)",9.46%
same,responders at 300 mg/kg,"female rats; 300 mg/kg i.p., session 1 (every 15 minutes), read-out: percentage of animals staying on the rota-rod more than 180 seconds",0%
same,responders at 300 mg/kg,"female rats; 300 mg/kg i.p., session 2 (every 15 minutes), read-out: percentage of animals staying on the rota-rod more than 180 seconds",0%
same,responders at 300 mg/kg,"female rats; 300 mg/kg i.p., session 3 (every 15 minutes), read-out: percentage of animals staying on the rota-rod more than 180 seconds",0%
same,responders at 300 mg/kg,"female rats; 300 mg/kg i.p., session 4 (every 15 minutes), read-out: percentage of animals staying on the rota-rod more than 180 seconds",0%
same,responders at 300 mg/kg,"female rats; 300 mg/kg i.p., session 5 (every 15 minutes), read-out: percentage of animals staying on the rota-rod more than 180 seconds",10%
same,responders at 300 mg/kg,"female rats; 300 mg/kg i.p., session 6 (every 15 minutes), read-out: percentage of animals staying on the rota-rod more than 180 seconds",10%
same,responders at 400 mg/kg,"female rats; 400 mg/kg i.p., session 1 (every 15 minutes), read-out: percentage of animals staying on the rota-rod more than 180 seconds",0%
same,responders at 400 mg/kg,"female rats; 400 mg/kg i.p., session 2 (every 15 minutes), read-out: percentage of animals staying on the rota-rod more than 180 seconds",0%
same,responders at 400 mg/kg,"female rats; 400 mg/kg i.p., session 3 (every 15 minutes), read-out: percentage of animals staying on the rota-rod more than 180 seconds",0%
same,responders at 400 mg/kg,"female rats; 400 mg/kg i.p., session 4 (every 15 minutes), read-out: percentage of animals staying on the rota-rod more than 180 seconds",0%
same,responders at 400 mg/kg,"female rats; 400 mg/kg i.p., session 5 (every 15 minutes), read-out: percentage of animals staying on the rota-rod more than 180 seconds",10%
same,responders at 400 mg/kg,"female rats; 400 mg/kg i.p., session 6 (every 15 minutes), * p < 0.05, read-out: percentage of animals staying on the rota-rod more than 180 seconds",10%
same,responders at 600 mg/kg,"female rats; 600 mg/kg i.p., session 1 (every 15 minutes), read-out: percentage of animals staying on the rota-rod more than 180 seconds",0%
same,responders at 600 mg/kg,"female rats; 600 mg/kg i.p., session 2 (every 15 minutes), read-out: percentage of animals staying on the rota-rod more than 180 seconds",0%
same,responders at 600 mg/kg,"female rats; 600 mg/kg i.p., session 3 (every 15 minutes), read-out: percentage of animals staying on the rota-rod more than 180 seconds",10%
same,responders at 600 mg/kg,"female rats; 600 mg/kg i.p., session 4 (every 15 minutes), read-out: percentage of animals staying on the rota-rod more than 180 seconds",10%
same,responders at 600 mg/kg,"female rats; 600 mg/kg i.p., session 5 (every 15 minutes), read-out: percentage of animals staying on the rota-rod more than 180 seconds",10%
same,responders at 600 mg/kg,"female rats; 600 mg/kg i.p., session 6 (every 15 minutes), * p < 0.05, read-out: percentage of animals staying on the rota-rod more than 180 seconds",30%
